± gives the expanded uncertainty stated by the source.
Settings: 351.2 K; Liquid; Ebulliometric method (Recirculating still)

With CCO [ethanol] the “vapor or sublimation pressure” value was 101.3 ± 3 kPa.

Source: the NIST ThermoML archive (doi:10.1021/je3007138)
